Measurements as given in patent US8247211B2, “Glycopeptide antibiotics” (American Cyanamid Company, priority 2001, dated 2012).
In brackets after ≈: the same amount, converted by molar mass.

What was measured:
Experiment in all cases: In vitro antibacterial evaluation: minimum inhibitory concentration (MIC), broth dilution method
Format in all cases: cell-based
[1] = tested on: Staphylococcus sp.; conditions: for MIC Staphylococcus aureus (ATCC 29213): strain ATCC 29213; for MIC Staphylococcus aureus (GC 1131): strain GC 1131; for MIC Staphylococcus aureus (GC 4541): strain GC 4541; for MIC Staphylococcus aureus (GC 4542): strain GC 4542; for MIC Staphylococcus aureus-SMITH (GC 4543): strain GC 4543; for MIC Staphylococcus aureus (GC 4544): strain GC 4544; for MIC Staphylococcus aureus (GC 4545): strain GC 4545; for MIC Staphylococcus haemolyticus (GC 4546): strain GC 4546; for MIC Coagulase Negative Staphylococcus (GC 4547): strain GC 4547; for MIC Coagulase Negative Staphylococcus (GC 4548): strain GC 4548; for MIC Coagulase Negative Staphylococcus (GC 4549): strain GC 4549; for MIC Coagulase Negative Staphylococcus (GC 4551): strain GC 4551; for MIC Coagulase Negative Staphylococcus (ID-3941): strain ID-3941
Description: (§1) The minimum inhibitory concentration (MIC), the lowest concentration of the antibiotic which inhibits growth of the test organism, is determined by the broth dilution method using Muller-Hinton II […] (Baltimore Biological Laboratories) following the recommendations of the National Committee for Clinical Laboratory Standards [Methods for dilution antimicrobial susceptibility tests for bacteria that grow aerobically, approved standard M7-A2, National Committee for Clinical Laboratory Standards, Villanova, Pa].
(§2) An inoculum level of 5×10^5 CFU/mL, and a range of antibiotic concentrations (64-0.06 μg/mL) is used. […] The test organisms include a spectrum of Gram-positive bacteria comprised of Staphylococcus sp., Streptococcus sp. and Enterococcus sp. These organisms include recent clinical isolates that are resistant to methicillin, penicillin and/or vancomycin.

[2] = tested on: Escherichia coli; conditions: 5×10^5 CFU/mL, 18 hours at 35° C.
Description: as §1, §2

[3] = tested on: Enterococcus sp.; conditions: broth dilution, 5×10^5 CFU/mL, 18 hours at 35° C.
Description: as §1, §2

[4] = tested on: Streptococcus sp.; conditions: broth dilution, 5×10^5 CFU/mL, 18 hours at 35° C.
Description: as §1, §2

[5] = broth dilution, 18 hours at 35° C.

Row | MIC Staphylococcus aureus (ATCC 29213) [1] [µg/mL] | MIC Staphylococcus aureus (GC 1131) [1] [µg/mL] | MIC Staphylococcus aureus (GC 4541) [1] [µg/mL] | MIC Staphylococcus aureus (GC 4542) [1] [µg/mL] | MIC Staphylococcus aureus-SMITH (GC 4543) ([1]; 18 hours at 35° C.) [µg/mL] | MIC Staphylococcus aureus-SMITH (GC 4543) [1, 5] [µg/mL] | MIC Staphylococcus aureus (GC 4544) [1] [µg/mL] | MIC Staphylococcus aureus (GC 4545) [1] [µg/mL] | MIC Coagulase Negative Staphylococcus (GC 4547) [1] [µg/mL] | MIC Coagulase Negative Staphylococcus (GC 4547) [1, 5] [µg/mL] | MIC Coagulase Negative Staphylococcus (GC 4548) [1] [µg/mL] | MIC Coagulase Negative Staphylococcus (GC 4548) [1, 5] [µg/mL] | MIC Coagulase Negative Staphylococcus (GC 4549) [1] [µg/mL] | MIC Coagulase Negative Staphylococcus (GC 4549) [1, 5] [µg/mL] | MIC Coagulase Negative Staphylococcus (GC 4551) [1] [µg/mL] | MIC Coagulase Negative Staphylococcus (GC 4551) [1, 5] [µg/mL] | MIC Escherichia coli (ATCC 25922) [2] [µg/mL] | MIC Enterococccus avium (GC 4558) [3] [µg/mL] | SMILES | MIC Staphylococcus haemolyticus (GC 4546) [1] [µg/mL] | MIC Staphylococcus haemolyticus (GC 4546) [1, 5] [µg/mL] | also measured
1 | 8 (≈ 5.16 µM) | 8 (≈ 5.16 µM) | 16 (≈ 10.3 µM) | 8 (≈ 5.16 µM) | 8 (≈ 5.16 µM) | 8 (≈ 5.16 µM) | 16 (≈ 10.3 µM) | 8 (≈ 5.16 µM) | 8 (≈ 5.16 µM) | 8 (≈ 5.16 µM) | 4 (≈ 2.58 µM) | 4 (≈ 2.58 µM) | 4 (≈ 2.58 µM) | 4 (≈ 2.58 µM) | 8 (≈ 5.16 µM) | 8 (≈ 5.16 µM) | 64 (≈ 41.2 µM) | 4 (≈ 2.58 µM) | N=C1NCC(C(O)C2NC(=O)C(Cc3ccc(OC4OC(CO)C(OC5OC6COC7(OC6C6OC8(OC56)C5CC6CC(C5)CC8C6)C5CC6CC(C5)CC7C6)C(O)C4O)cc3)NC(=O)C(CC3CCCCC3)NC(=O)CNC(=O)C(CO)NC(=O)C(C(O)C3CNC(=N)N3C3OC(CO)C(O)C(O)C3O)NC2=O)N1 (stereo not shown) [Example 106b] | 4 (≈ 2.58 µM) | 4 (≈ 2.58 µM) | MIC Staphylococcus aureus (GC 3051) ([1]; strain GC 3051): 8 µg/mL (≈ 5.16 µM); MIC Staphylococcus aureus (GC 3053) ([1]; strain GC 3053): 8 µg/mL (≈ 5.16 µM); MIC Escherichia coli (GC 4559) [2]: 32 µg/mL (≈ 20.6 µM); MIC Escherichia coli (GC 4560) [2]: 8 µg/mL (≈ 5.16 µM); MIC Enterococccus faecalis (ATCC 29212) [3]: 8 µg/mL (≈ 5.16 µM); MIC Enterococccus faecalis (GC 2691) [3]: 16 µg/mL (≈ 10.3 µM); MIC Enterococccus faecalis (GC 3059) [3]: 16 µg/mL (≈ 10.3 µM); MIC Enterococccus faecalis (GC 4552) [3]: 8 µg/mL (≈ 5.16 µM); MIC Enterococccus faecalis (GC 4553) [3]: 8 µg/mL (≈ 5.16 µM); MIC Enterococccus faecalis (GC 4554) [3]: 16 µg/mL (≈ 10.3 µM); MIC Enterococccus faecalis (GC 6189) [3]: 8 µg/mL (≈ 5.16 µM); MIC Enterococccus faecium (GC 2243) [3]: 8 µg/mL (≈ 5.16 µM); MIC Enterococccus faecium (GC 4556) [3]: 8 µg/mL (≈ 5.16 µM); MIC Enterococccus faecium (GC 4557) [3]: 4 µg/mL (≈ 2.58 µM); MIC Enterococcus faecalis (GC 2242) [3]: 8 µg/mL (≈ 5.16 µM); MIC Streptococcus agalactiae (GC 4564) [4]: 0.5 µg/mL (≈ 0.322 µM); MIC Streptococcus pneumoniae (GC 1894) [4]: <0.12 µg/mL; MIC Streptococcus pneumoniae (GC 4565) [4]: 0.5 µg/mL (≈ 0.322 µM); MIC Streptococcus pneumonine (ATCC 6301) [4]: 0.5 µg/mL (≈ 0.322 µM); MIC Streptococcus pyogenes (GC 4563) [4]: 0.5 µg/mL (≈ 0.322 µM)
2 | 1 (≈ 0.733 µM) | 2 (≈ 1.47 µM) | 2 (≈ 1.47 µM) | 1 (≈ 0.733 µM) | 1 (≈ 0.733 µM) | 1 (≈ 0.733 µM) | 2 (≈ 1.47 µM) | 1 (≈ 0.733 µM) | 1 (≈ 0.733 µM) | 1 (≈ 0.733 µM) | 1 (≈ 0.733 µM) | 1 (≈ 0.733 µM) | 1 (≈ 0.733 µM) | 1 (≈ 0.733 µM) | 1 (≈ 0.733 µM) | 1 (≈ 0.733 µM) | 64 (≈ 46.9 µM) | 8 (≈ 5.87 µM) | CC(C)CC1OCC2OC(OC3C(CO)OC(Oc4ccc(CC5NC(=O)C(C(C)c6ccccc6)NC(=O)CNC(=O)C(CO)NC(=O)C(C(O)C6CNC(=N)N6C6OC(CO)C(O)C(O)C6O)NC(=O)C(C(O)C6CNC(=N)N6)NC5=O)cc4)C(O)C3O)C(O)C(O)C2O1 (stereo not drawn) [Example 107, Cyclo[glycyl-β-methylphenylalanyl-O-[4-O-[4,6-O-(3-methylbutylidene)hexopyranosyl]-hexopyranosyl]tyrosyl-3-(2-iminoimidazolidin-4-yl)seryl-3-(3-hexopyranosyl-2-iminoimidazolidin-4-yl)serylseryl]] | 1 (≈ 0.733 µM) | 1 (≈ 0.733 µM) | MIC Staphylococcus aureus (ATCC 29213) [1, 5]: 1 µg/mL (≈ 0.733 µM); MIC Staphylococcus aureus (GC 1131) [1, 5]: 2 µg/mL (≈ 1.47 µM); MIC Staphylococcus aureus (GC 4541) [1, 5]: 2 µg/mL (≈ 1.47 µM); MIC Staphylococcus aureus (GC 4542) [1, 5]: 1 µg/mL (≈ 0.733 µM); MIC Staphylococcus aureus (GC 4544) [1, 5]: 2 µg/mL (≈ 1.47 µM); MIC Staphylococcus aureus (GC 4545) [1, 5]: 1 µg/mL (≈ 0.733 µM); MIC Coagulase Negative Staphylococcus (ID-3941) [1]: 1 µg/mL (≈ 0.733 µM); MIC Coagulase Negative Staphylococcus (ID-3941) [1, 5]: 1 µg/mL (≈ 0.733 µM); MIC Enterococccus faecalis (ATCC 29212) [3]: 4 µg/mL (≈ 2.93 µM); MIC Enterococccus faecalis (GC 4552) [3]: 4 µg/mL (≈ 2.93 µM); MIC Enterococccus faecalis (GC 4553) [3]: 8 µg/mL (≈ 5.87 µM); MIC Enterococccus faecalis (GC 4554) [3]: 4 µg/mL (≈ 2.93 µM); MIC Enterococccus faecium (GC 2243) [3]: 8 µg/mL (≈ 5.87 µM); MIC Enterococccus faecium (GC 4556) [3]: 4 µg/mL (≈ 2.93 µM); MIC Enterococccus faecium (GC 4557) [3]: 2 µg/mL (≈ 1.47 µM); MIC Enterococcus faecalis (GC 2242) [3]: 4 µg/mL (≈ 2.93 µM); MIC Streptococcus agalactiae (GC 4564) [4]: 0.25 µg/mL (≈ 0.183 µM); MIC Streptococcus pneumoniae (GC 4565) [4]: <0.12 µg/mL; MIC Streptococcus pyogenes (ID-3187) [4]: 0.25 µg/mL (≈ 0.183 µM)
3 | 1 (≈ 0.726 µM) | 1 (≈ 0.726 µM) | 1 (≈ 0.726 µM) | 1 (≈ 0.726 µM) | 1 (≈ 0.726 µM) | 1 (≈ 0.726 µM) | 1 (≈ 0.726 µM) | 1 (≈ 0.726 µM) | 1 (≈ 0.726 µM) | 1 (≈ 0.726 µM) | <0.5 | <0.5 | 1 (≈ 0.726 µM) | 1 (≈ 0.726 µM) | 1 (≈ 0.726 µM) | 1 (≈ 0.726 µM) | 32 (≈ 23.2 µM) | 2 (≈ 1.45 µM) | CCCCCC1OCC2OC(OC3C(CO)OC(Oc4ccc(CC5NC(=O)C(C(C)c6ccccc6)NC(=O)CNC(=O)C(CO)NC(=O)C(C(O)C6CNC(=N)N6C6OC(CO)C(O)C(O)C6O)NC(=O)C(C(O)C6CNC(=N)N6)NC5=O)cc4)C(O)C3O)C(O)C(O)C2O1 (stereo not drawn) [Example 108, Cyclo[glycyl-β-methylphenylalanyl-O-[4-O-(4,6-O-hexylidenehexonyranosyl)hexopyranosyl]-tyrosyl-3-(2-iminoimidazolidin-4-yl)seryl-3-(3-hexopyranosyl-2-iminoimidazolidin-4-yl)-serylseryl]] | 1 (≈ 0.726 µM) | 1 (≈ 0.726 µM) | MIC Staphylococcus aureus (ATCC 29213) [1, 5]: 1 µg/mL (≈ 0.726 µM); MIC Staphylococcus aureus (GC 1131) [1, 5]: 1 µg/mL (≈ 0.726 µM); MIC Staphylococcus aureus (GC 4541) [1, 5]: 1 µg/mL (≈ 0.726 µM); MIC Staphylococcus aureus (GC 4542) [1, 5]: 1 µg/mL (≈ 0.726 µM); MIC Staphylococcus aureus (GC 4544) [1, 5]: 1 µg/mL (≈ 0.726 µM); MIC Staphylococcus aureus (GC 4545) [1, 5]: 1 µg/mL (≈ 0.726 µM); MIC Coagulase Negative Staphylococcus (ID-3941) [1]: 1 µg/mL (≈ 0.726 µM); MIC Coagulase Negative Staphylococcus (ID-3941) [1, 5]: 1 µg/mL (≈ 0.726 µM); MIC Enterococccus faecalis (ATCC 29212) [3]: 2 µg/mL (≈ 1.45 µM); MIC Enterococccus faecalis (GC 4552) [3]: 2 µg/mL (≈ 1.45 µM); MIC Enterococccus faecalis (GC 4553) [3]: 2 µg/mL (≈ 1.45 µM); MIC Enterococccus faecalis (GC 4554) [3]: 2 µg/mL (≈ 1.45 µM); MIC Enterococccus faecium (GC 2243) [3]: 2 µg/mL (≈ 1.45 µM); MIC Enterococccus faecium (GC 4556) [3]: 2 µg/mL (≈ 1.45 µM); MIC Enterococccus faecium (GC 4557) [3]: 1 µg/mL (≈ 0.726 µM); MIC Enterococcus faecalis (GC 2242) [3]: 2 µg/mL (≈ 1.45 µM); MIC Streptococcus agalactiae (GC 4564) [4]: <0.5 µg/mL; MIC Streptococcus pneumoniae (GC 4565) [4]: <0.5 µg/mL; MIC Streptococcus pyogenes (ID-3187) [4]: <0.5 µg/mL
